In US3952051A, “Method for crystallization of diamine dicarboxylate” (Asahi Kasei Kogyo Kabushiki Kaisha, priority 1971, dated 1976):

Experiment: Size of crystals collected after neutralization

hexamethylenediamine adipate
Average size of crystals (Example 1, from aqueous medium, pH 7.5, 60°C.): 700 microns | Grain size of collected crystals (comparative example, methanol as solvent): about 250 microns
